Structures are written as SMILES. Where a name gives a salt, the structure may show the parent alone. Read-outs that look alike come from different tables or passages of the source.

In the experiment the test system is PRKACA-PRKAR2A interaction (SmBiT-PRKACA / LgBiT-PRKAR2A), protein kinase A. Also noted: NanoLuc complementation counter-screen in cell extract, PRKACA with PRKAR2A, loss of luminescence, detects NanoLuc interference. The conditions noted are these: 0.5 h, 20 µM, inhibitor.
Where [1] appears, read: counter-screen for NanoLuc interference.
Setting [2] is: counter-screen for NanoLuc interference, Inh (PKA).

For the compound `Cc1cc(C)c(Nc2ccnc(Nc3ccc(C#N)cc3)n2)c(C)c1` [UM0142086:01, Dapivirine (TMC120)], the “Inh (PKA)” value under setting [1] stood at 39.35%.

For the compound `COc1ncc(-c2ccc3nccc(-c4ccnnc4)c3c2)cc1NS(=O)(=O)c1ccc(F)cc1F` [UM0142087:01, GSK2126458], the “Inh (PKA)” value under setting [1] turned out to be 7.374%.

Regarding `CNC(=O)c1ccccc1Nc1nc(Nc2ccc(N3CCOCC3)cc2OC)ncc1Cl` [UM0142088:01, TAE226 (NVP-TAE226)], under setting [1], the “Inh (PKA)” value turned out to be 15.32%.

For the compound `CC[C@@H]1C(=O)N(C)c2cnc(Nc3ccc(C(=O)N[C@H]4CC[C@H](N5CCN(CC6CC6)CC5)CC4)cc3OC)nc2N1C(C)C` [UM0142089:01, BI6727 (Volasertib)], the “Inh (PKA)” value under setting [1] was found to be 8.077%.

For the compound `CC(C)[C@H](CO)Nc1nc(Nc2ccc(C(=O)O)c(Cl)c2)c2ncn(C(C)C)c2n1` [UM0142090:01, Purvalanol B], the “Inh (PKA)” value under setting [1] came out at 25.51%.

With `C[C@H]1CO[C@@H]2Cn3cc(C(=O)NCc4ccc(F)cc4F)c(=O)c(O)c3C(=O)N12` [UM0142091:01, GSK744 (S/GSK1265744)], under setting [1], the “Inh (PKA)” value was 7.532%.

As to `N#Cc1ccc(OC2CCC(NC(=O)CCSc3nc4ccccc4c(=O)[nH]3)CC2)cc1` (stereo not shown) [UM0142092:01, Tankyrase Inhibitors (TNKS) 49], the “Inh (PKA)” value under setting [1] was 5.667%.

For the compound `Cc1[nH]nc2ccc(-c3cncc(OC[C@@H](N)Cc4ccccc4)c3)cc12` [UM0142094:01, A-674563], the “Inh (PKA)” value under setting [1] was 19.6%.

Regarding `NC1(Cc2ccc(Cl)cc2)CCN(c2ncnc3[nH]ccc23)CC1` [UM0142095:01, CCT128930], the “Inh (PKA)” value under setting [1] is 38.25%.

Consider `Cc1ccccc1CN1C(=O)C2=C(CCN(Cc3ccccc3)C2)N2CCN=C12` [UM0142096:01, TIC10], for which the “Inh (PKA)” value was found to be 4.346.

For `COc1cc(N2CCC(N)CC2)ccc1Nc1ncc(Cl)c(-c2c[nH]c3ccccc23)n1` [UM0142097:01, AZD-3463], the “Inh (PKA)” value under setting [1] was 51%.

Consider `C[C@]12CC[C@H](O)CC1=CC[C@@H]1[C@@H]2CC[C@]2(C)C(n3cnc4ccccc43)=CC[C@@H]12` [UM0142098:01, TOK-001], for which, under setting [1], the “Inh (PKA)” value came out at 15.03%.

Take `O=C(NC(NC(=S)Nc1ccc(F)c([N+](=O)[O-])c1)C(Cl)(Cl)Cl)C(c1ccccc1)c1ccccc1` (stereo not shown) [UM0142099:01, CGK733]: the “Inh (PKA)” value under setting [1] was 35.68%.

Consider `O=C(/C=C/c1cccnc1)NCCCCC1CCN(C(=O)c2ccccc2)CC1` [UM0142102:01, FK 866 hydrochloride], for which the “Inh (PKA)” value under setting [2] is given as 0.5645%.

As for `CN1CCN(c2ccc(Nc3cc(-c4cccc(-n5ccc6cc(C7CC7)cc(F)c6c5=O)c4CO)cn(C)c3=O)nc2)CC1` [UM0142104:01, RN486], the “Inh (PKA)” value under setting [1] worked out at 0.8611%.

For `O=C(NCc1ccc(Oc2ccccc2)cc1)c1nc(-c2cc(Br)c(O)c(Br)c2)no1` [UM0142105:01, IOWH-032], the “Inh (PKA)” value under setting [1] is 17.03%.

With `Cc1cnc(NC(=O)Nc2cc(Br)c(C)cc2OC[C@@H]2CNCCO2)cn1` [UM0142106:01, LY2603618], the “Inh (PKA)” value under setting [1] came to 6.637%.

For `CN1CC[C@H](c2c(O)cc(O)c3c(=O)cc(-c4ccccc4Cl)oc23)[C@H](O)C1` [UM0142107:01, Flavopiridol hydrochloride], the “Inh (PKA)” value under setting [1] was found to be 4.692%.

For `CN(C)C(=O)c1cc2cnc(Nc3ccc(N4CCNCC4)cn3)nc2n1C1CCCC1` [UM0142108:01, LEE011], the “Inh (PKA)” value under setting [1] is on record as 5.257%.

As to `CCCCCOC(=O)Nc1nc(=O)n([C@@H]2O[C@H](C)[C@@H](O)[C@H]2O)cc1F` [UM0142109:01, Capecitabine], the “Inh (PKA)” value under setting [1] stood at 3.507%.

With `N#C[C@@H]1C[C@@H]2C[C@@H]2N1C(=O)[C@@H](N)C12CC3CC(CC(O)(C3)C1)C2` [UM0142110:01, Saxagliptin], the “Inh (PKA)” value under setting [1] is on record as 1.3%.

With `Cc1nn(-c2ccccc2)c(C)c1/C=N/N1CCN(Cc2ccccc2)CC1` [UM0142111:01, SANT-1], under setting [1], the “Inh (PKA)” value stood at 15.15%.

For the compound `CC(C)[C@H]1C(=O)N[C@@H](CCCNC(=N)N)C(=O)NCC(=O)N[C@@H](CC(=O)O)C(=O)N[C@H](Cc2ccccc2)C(=O)N1C` [UM0142112:01, Cilengitide], under setting [1], the “Inh (PKA)” value is recorded as 0.5722%.

For `O=C1NCCCc2c1oc1ccc(O)cc21` [UM0142113:01, CID 755673], the “Inh (PKA)” value under setting [1] is 2.979%.

Take `CC[C@@H](N)CNc1ccnc(-c2cc(-c3cnn(C)c3)ccc2O)n1` [UM0142114:01, CRT 0066101]: under setting [1], the “Inh (PKA)” value is recorded as 18.6%.

As for `O=c1ncn2nc(Sc3ccc(F)cc3F)ccc2c1-c1c(Cl)cccc1Cl` [UM0142117:01, VX-745], under setting [1], the “Inh (PKA)” value was found to be 8.434%.

Regarding `CN(c1ccccc1CNc1nc(Nc2ccc3c(c2)CC(=O)N3)ncc1C(F)(F)F)S(C)(=O)=O` [UM0142118:01, PF-431396], the “Inh (PKA)” value under setting [1] was determined as 63.93%.

Regarding `FC(F)(F)Oc1ccc2nc(-c3ccc(OCCOCCOc4ccc(-c5nc6ccc(OC(F)(F)F)cc6[nH]5)nc4)cn3)[nH]c2c1` [UM0142119:01, AI-10-49], the “Inh (PKA)” value under setting [1] is on record as 39.19%.

On to `C=CC(=O)Nc1ccc(CN2C(=O)N(c3cc(OC)cc(OC)c3)Cc3cnc(Nc4ccc(N5CCN(C)CC5)cc4)nc32)cc1` [UM0142120:01, FIIN-2], for which the “Inh (PKA)” value under setting [1] is given as 9.452%.

In the case of `CC(C)(C)C(O)/C=C/c1ccc2c(c1)OCO2` (stereo not shown) [UM0142121:01, Stiripentol], under setting [1], the “Inh (PKA)” value worked out at 12.44%.

Take `C=CC(=O)Nc1cccc(C)c1Nc1ncc2cc(-c3c(Cl)c(OC)cc(OC)c3Cl)ccc2n1` [UM0142122:01, BLU9931]: the “Inh (PKA)” value under setting [1] is given as 48.23%.

As to `CCCC[S+]([O-])c1sc2nc(-c3cccs3)cc(-c3ccccc3)c2c1N` (stereo not shown) [UM0142124:01, SW033291], the “Inh (PKA)” value under setting [1] came to 33.39%.

As to `CC(C)(CCCCCC(O)CCCCCC(C)(C)C(=O)O)C(=O)O` [UM0142125:01, ETC-1002], under setting [1], the “Inh (PKA)” value stood at 5.399%.

For the compound `CNC(=O)c1ccccc1Oc1nc(Nc2cc(OC)c(OC)c(OC)c2)ncc1Br` [UM0142126:01, SBI-0206965], the “Inh (PKA)” value under setting [1] is recorded as 34.96%.

As to `CNc1ncc2cc(-c3cc(NC(=O)NCCC(C)(C)C)c(F)cc3C)c(C)nc2n1` [UM0142127:01, LY3009120], the “Inh (PKA)” value under setting [1] was 13.32%.

`CN(C)C/C=C/C(=O)Nc1cccc(C(=O)Nc2cccc(Nc3ncc(Cl)c(-c4c[nH]c5ccccc45)n3)c2)c1` [UM0142128:01, THZ2]: under setting [1], the “Inh (PKA)” value is on record as 74.86%.

In the case of `CN1CCN(C(=O)c2ccc3cc(CCNc4ncnc5ccc(C#N)cc45)ccc3c2)CC1` [UM0142129:01, Senexin B], the “Inh (PKA)” value under setting [1] came out at 3.385%.

With `CN1C(=O)c2sccc2N(C)c2nc(Nc3ccc(S(N)(=O)=O)cc3)ncc21` [UM0142130:01, XMU-MP-1], under setting [1], the “Inh (PKA)” value was determined as 6.005%.

Turning to `Cc1c(-c2c(-c3ccc(F)o3)sc3ncnc(O[C@H](Cc4ccccc4OCc4ccnn4CC(F)(F)F)C(=O)O)c23)ccc(OCCN2CCN(C)CC2)c1Cl` [UM0142131:01, S63845], the “Inh (PKA)” value under setting [1] stood at 20.59%.

On to `COc1ccc(S(=O)(=O)N2CCC(N3CCC(C)CC3)CC2)cc1` [UM0142132:01, TASIN-1], for which the “Inh (PKA)” value under setting [1] came out at 4.343%.

As to `Cn1c2ccccc2c2c3c(c4c5ccccc5n(CCC#N)c4c21)C(=O)NC3=O` [UM0142134:01, ICP 103], the “Inh (PKA)” value under setting [1] was 13.04%.

On to `Nc1cc(F)ccc1NC(=O)/C=C/c1cnn(C/C=C/c2ccccc2)c1` [UM0142135:01, RGFP966], for which the “Inh (PKA)” value under setting [1] worked out at 7.983%.

`O=C(NCC1(c2nc(-c3ccccc3)cs2)CCOCC1)c1cccc(-c2noc(C(F)(F)F)n2)c1` [UM0142136:01, TMP269]: the “Inh (PKA)” value under setting [1] was found to be 21.99%.

For `O=C(c1cccc(Cl)c1F)N1CCN(Cc2cccc(Nc3nccs3)n2)CC1` [UM0142137:01, MK-8745], under setting [1], the “Inh (PKA)” value came out at 20.15%.

Turning to `CSc1cccc(Nc2ncc3cc(-c4c(Cl)cccc4Cl)c(=O)n(C)c3n2)c1` [UM0142139:01, PD173955], under setting [1], the “Inh (PKA)” value turned out to be 37.99%.

In the case of `CCCCCCCCCCCCCCCCn1cc[n+](Cc2ccccc2)c1C` [UM0142140:01, NH125], the “Inh (PKA)” value under setting [1] worked out at 8.181%.

With `C=CC(=O)Nc1cccc(Oc2nc(Nc3ccc(N4CCN(C)CC4)cc3)ncc2Cl)c1` [UM0142142:01, WZ3146], the “Inh (PKA)” value under setting [1] is listed as 33.46%.

For the compound `CN(C)C/C=C/C(=O)Nc1ccc(C(=O)Nc2cccc(Nc3ncc(Cl)c(-c4c[nH]c5ccccc45)n3)c2)cc1` [UM0142143:01, THZ1], the “Inh (PKA)” value under setting [1] was 81.51%.

Turning to `C[C@@H]1COCCN1c1cc(=O)n2c(n1)N(Cc1cncc(Cl)c1)[C@H](C(F)(F)F)CC2` [UM0142144:01, SAR405], the “Inh (PKA)” value under setting [1] came to 7.192%.

As to `O=C1N=C(NCc2cccs2)S/C1=C\c1ccc2ncccc2c1` [UM0142145:01, Ro 3306], the “Inh (PKA)” value under setting [1] is 23.14%.

With `CN1CCC(Nc2nc(Nc3ccc(Oc4ccccc4)cc3)c3c(=O)[nH]cc(Br)c3n2)CC1` [UM0142146:01, G-749], under setting [1], the “Inh (PKA)” value was 37.05%.

`Cc1nc(Nc2cnn(C3CCNCC3)c2)nc2c1N(C)C(=O)c1cc3ccccc3cc1N2C` [UM0142147:01, HTH-01-015]: under setting [1], the “Inh (PKA)” value was 10.88%.

`CN(Cc1cccc(-c2ccncc2)c1)C(=O)Oc1ccc(-c2ccc(C(N)=O)cc2)cc1` [UM0142148:01, WWL 70]: the “Inh (PKA)” value stood at 11.8%.

Take `CNCc1ccc(-c2[nH]c3cc(F)cc4c3c2CCNC4=O)cc1` [UM0142149:01, Rucaparib (free base)]: the “Inh (PKA)” value under setting [2] worked out at 8.491%.

`COC(=O)C[C@H](NC(=O)[C@H](C)NC(=O)[C@@H](NC(=O)[C@H](Cc1ccc(O)cc1)NC(=O)OCc1ccccc1)C(C)C)C(=O)CF` [UM0142151:01, Z-YVAD-FMK]: under setting [1], the “Inh (PKA)” value was 2.926%.

Take `Cc1nn(C)c2c1C(c1ccc(C(F)(F)F)cc1)C(C#N)=C(N)O2` (stereo not shown) [UM0142152:01, BQU57]: the “Inh (PKA)” value under setting [1] came to 14.94%.

Regarding `O=CC[C@@H](O)[C@H](O)[C@H](O)CO` [UM0142158:01, 2-Deoxy-D-glucose], the “Inh (PKA)” value under setting [1] stood at 1.529%.

In the case of `Cc1c(-c2ccnn2C)cc(C(=O)NCc2ccc(S(C)(=O)=O)cn2)c(=O)n1-c1cccc(C(F)(F)F)c1` [UM0142161:01, Alvelestat], the “Inh (PKA)” value under setting [1] is 0.5125%.

For the origin of these results see article PMC9995496, “A screen for MeCP2-TBL1 interaction inhibitors using a luminescence-based assay” (Scientific Reports, 2023).
